Experimental data taken from US6509319B1, “EDTA and other chelators with or without antifungal antimicrobial agents for the prevention and treatment of fungal infections” (Board of Regents, The University of Texas System, priority 1997, dated 2003).

Tests used:
Fusarium oxysporum = conditions: 0.35 mg EDTA per mL, Mueller-Hinton, in vitro
Protocol: (§1) These figures are discussed elsewhere in the Detailed Description section. A spectrophotometer was used at a frequency of 660 nm to measure the absorbency of the solution.
(§2) For molds, all inocula were started at 1×10^4 conidia/mL. For yeast and bacteria, all inocula were started at 1×10^6 cfu/mL. The medium used was Mueller-Hinton.
(§3) The concentration of chelator in these studies was 0.35 mg EDTA per mL water.

Aspergillus flavus = conditions: 0.35 mg EDTA per mL, in vitro
Protocol: as §1, §2, §3

Aspergillus terreus = conditions: 0.35 mg EDTA per mL, Mueller-Hinton, in vitro
Protocol: as §1, §2, §3

Candida krusei = conditions: 0.35 mg EDTA per mL, in vitro
Protocol: as §1, §2, §3

[1] = cited from earlier work

SMILES	inhibitory effect on growth (Fusarium oxysporum)	inhibitory effect on growth relative to the control population (Aspergillus flavus; Mueller-Hinton)	time after application from which the inhibitory effect is most clearly noticeable (Aspergillus flavus) [h]	inhibitory effect on growth (Aspergillus terreus)	inhibitory effect on growth (Candida krusei; Mueller-Hinton)	time after contact at which the inhibitory effect is noticeable (Candida krusei)	solubility in aqueous solution [1]
O=C(O)CN(CCN(CC(=O)O)CC(=O)O)CC(=O)O [EDTA, Ethylenediamine-N,N,N′,N′,-tetraacetic acid]	inhibitory effect	inhibitory effect	12	inhibitory effect	inhibitory effect	only a few hours	–
C[C@@H]1[C@H](O)[C@@H](C)/C=C/C=C/C=C/C=C/C=C/C=C/C=C/[C@H](O[C@@H]2O[C@H](C)[C@@H](O)[C@H](N)[C@@H]2O)C[C@@H]2O[C@](O)(C[C@@H](O)C[C@@H](O)[C@H](O)CC[C@@H](O)C[C@@H](O)CC(=O)O[C@H]1C)C[C@H](O)[C@H]2C(=O)O [Amphotericin B]	–	–	–	–	–	–	not soluble
